From patent US5821252A, “Method of blocking nerve conduction by treatment with branched-chain esters of 2-[4-(2-piperidine-ethoxy)-benzoyl]-benzoic acid and pharmaceutically acceptable salts thereof” (priority 1988, dated 1998)
Where two headings read alike, the source gives them in different places.

Legend:
[1] = tested on: small intestine motility; test: Small intestinal motility in the conscious dog, phase I and II activity; type: in vivo; settings: for rank order of potency: spontaneous motility of small intestine, conscious dog
Text: (§1) Male dogs (THG Tierhandelsgesellschaft Rodenbach, Hoe: BEAK (Beagle)) weighing 15-20 kg were used in all experiments. At least 4 weeks prior to the experiment the dogs had been equipped with miniaturized strain gage force transducers (T1-T3) (2×4 mm), sutured onto the gut at the locations mentioned below. The cables of the transducers were embedded into a cannula which carried the plug for external electric connection. This stainless steel cannula was implanted into the abdominal wall, close below the costal arch. Each transducer was connected to a measuring bridge. The signals were on line stored using a HP 9835 A computer, allowing later analysis of the data.
(§2) 18 hours prior to the experiment food was withdrawn from the animals, water ad libidum. All experiments started between 08:00 and 09:00 am.
(§3) The following motility parameters were determined:
The integral under the concentration curves at 10 min intervals (mN×10min) as an index of phase I+II activity. The duration of drug action (min.)
(§4) The duration of the interdigestive migrating complex (IMC) (min) as a measure of phase III activity.
(§5) Test Compound II was given at doses of 0.2 and 0.5 mg/kg i.v. or 5 mg/kg i.g., dissolved in saline, in a volume of 1 ml/kg (i.v.) or 2 ml/kg (i.g.), n=3-6. Control n=26.
Reference substances: Buscopan, pitofenon.
Buscopan was given at doses of 0.3 and 1 mg/kg i.v., dissolved in saline, in a volume of 1 ml/kg, n=4-6. Pitofenone was given at doses of 1 mg/kg i.v., dissolved in saline, in a volume of 1 ml/kg, n=8.
1D50 -values were determined graphically.

[2] = tested on: colonic motility; test: Motility of the large bowel (colonic motor complex) in conscious dogs; type: in vivo, dog
Text: Male dogs (THG Tierhandelsgesellschaft Rodenbach, Hoe:BEAK (Beagle)) weighing 15-20 kg were used in all experiments.
as §1, with “At” for “Male dogs (THG Tierhandelsgesellschaft Rodenbach, Hoe: BEAK (Beagle)) weighing 15-20 kg were used in all experiments. At”, “prior” for “prior to”, “(T1-T2)” for “(T1-T3)”, “on-line” for “on line”, “computer, thereby” for “computer,”
T1: Colon ascendens 10 cm aborafrom the ileoceval valve (ICV)
T2: Colon transversum 25 cm aborad from the ICV
18 hours prior to the experiment food was withdrawn from the animals, water ad libidum All experiments started between 08:00 and 09:00 am.
The following parameters were determined:
The duration of the cycle (min)
The duration of the colonic motor complex (CMC) (min)
The maximal height of the concentrations (AU: arbitrary units)
Data from the two recording sites (T1-T2) were pooled. […]
Statistical methods: For detection of significant differences (p<0.05) the unpaired t-test was used. Only significant differences were indicated by *.

[3] = tested on: Guinea pig ileum; test: Antispasmodic activity in isolated guinea pig ileum (acetylcholine contraction); type: cell-based; settings: for Duration of action: isolated guinea pig ileum
Experimental: Small intestines obtained from freshly sacrificed guinea pigs (weight range, 200-400 g) of either sex were cleaned and stored in tyrode solution. A piece of ileum was mounted in an organ bath containing tyrode solution at 37° C. and maintained at a tension of 0.5 to 1.0 g. The solution was continuously aerated with compressed air. After an initial equilibration period, a sub-maximal dose of acetylcholine required for measurable contraction was standardized. Tension changes were monitored using an isotonic strain gauge attached to the tissue and the responses were recorded on a strip chart recorder. Antispasmodic activity of test compounds at different concentrations was followed and the IC50, values were calculated from dose response curves.

[4] = cited from earlier work
[5] = tested on: Porcine liver esterase; test: Enzymatic hydrolysis rates by porcine liver esterase; type: in vitro ADME; settings: 1 mM, pH 8.0, 37° C.
Experimental: Porcine liver esterase (0.5 U=2 μg) was preincubated in 40 mM Tris-HCl buffer, pH 8.0, at 37° C. for 5 min. The reaction was initiated with the addition of the test compound (final concentration, 1 mM) in the final volume of 250 μl. Enzyme reaction was terminated at different time intervals by the addition of 60 μl of 1M acetic acid. The solution was made alkaline (pH 10.5) by adding 0.4M NaOH and the alkaline solution was rapidly extracted (three times) with 2.5 ml of chloroform. An aliquot of the aqueous supernatant was diluted with double distilled water and the absorbance was measured at 290 nm. Amount of test compound III (molar extinction=14,400) formed was calculated.

[6] = tested on: small intestine motility; test: Small intestinal motility in the conscious dog, phase III activity, intragastrical; type: in vivo; settings: 5 mg/kg intragastrically
Text: as §1, §2, §3, §4, §5

[7] = tested on: sciatic nerve; test: Conduction block anaesthesia in the rat, injection near sciatic nerve; type: in vivo; settings: for blockade of nerve conduction: injected near the sciatic nerve, hydrochloride
Experimental: Conduction block anaesthesia was produced in the rat using compound II [(Isopropyl 2-(4-2-piperidinoethoxy)-benzoyl)benzoate hydrochloride] according to the method of Traunt. (Traunt, A. P. Arch. Int. Phamacodyn. 115:483-497,1957).
The conduction block produced was of long duration and required a number of days for complete recovery. A dose of 20 mg/kg compound II blocked nerve conduction in the rat for about 33 days. Ten mg/kg of compound II blocked the nerve for 18±2 days (n=25). In comparison, 10 mg/kg of lignocaine, a standard local anesthetic, produced conduction block for only 0.086±0.01 days (n-10). […] This long lasting but reversible blockade of nerve conduction is of significant interest in the treatment of cancers, neuralgias and post-surgical states.

Structure (SMILES) | rank order of potency [1] | Duration of action [3] | μmol test compound III formed per mg protein per ml ([5]; time 0.0 hours) | μmol test compound III formed per mg protein per ml ([5]; time 0.5 hours) | μmol test compound III formed per mg protein per ml ([5]; time 2.0 hours) | μmol test compound III formed per mg protein per ml ([5]; time 3.5 hours) | duration of nerve conduction block ([7]; 10 mg/kg near sciatic nerve) | further results
CCCC[N+]1(C)[C@@H]2C[C@@H](OC(=O)[C@H](CO)c3ccccc3)C[C@H]1[C@@H]1O[C@@H]12 (some centres unmarked) [Buscopan] | Test Compound II>buscopan>pitofenon |  |  |  |  |  |  | Duration of action ([1]; 1 mg/kg i.v., until postdrug values reached 90% or more of predrug): 30 min; Max. height of CMC ([2]; 3 mg/kg intragastrically): 35 ± 17 AU; effect on colonic motility ([2]; 3 and 10 mg/kg i.g.): no effect on colonic motility
COC(=O)c1ccccc1C(=O)c1ccc(OCCN2CCCCC2)cc1.Cl [Test compound I, Methyl-2-[4-(2-piperidino-ethoxy)-benzoyl]-benzoate hydrochloride] | Test Compound II>buscopan>pitofenon | < 1.5 min | 0.00 μmol per mg protein per ml | 0.50 μmol per mg protein per ml | 1.62 μmol per mg protein per ml | 2.78 μmol per mg protein per ml |  | IC50 ([3]; Cavia porcellus, acetylcholine contraction, isolated ileum, 37° C.): 1 µg/mL; antispasmodic activity ([4]; administered intravenously): potent antispasmodic activity; antispasmodic activity ([4]; administered orally): considerably reduced; metabolism of methyl ester to the corresponding acid ([4]; oral): rapid metabolism of the methyl ester to the corresponding acid
CC(C)OC(=O)c1ccccc1C(=O)c1ccc(OCCN2CCCCC2)cc1.Cl [Test compound II, Isopropyl-2-[4-(2-piperidino-ethoxy)-benzoyl]-benzoate hydrochloride] | Test Compound II>buscopan>pitofenon | > 7.0 min | 0.00 μmol per mg protein per ml | 0.05 μmol per mg protein per ml | 0.10 μmol per mg protein per ml | 0.10 μmol per mg protein per ml | 18 ± 2 days | inhibition of phase III activity [6]: a pronounced inhibition of phase III activity; duration of nerve conduction block ([7]; 20 mg/kg near sciatic nerve): about 33 days; blockade of nerve conduction ([7]; listed as Compound II): dose-dependent blockade of nerve conduction; blockade of nerve conduction ([7]; listed as compound II): reversible blockade of nerve conduction lasting for hours to days; duration of inhibitory effect ([1]; 0.5 mg/kg i.v.): approximately one; effect on colonic motility ([2]; 1 mg/kg i.g.): uneffective; inhibition of colonic motility ([2]; 4 mg/kg i.g. (so in the source)): inhibited colonic motility (CMC in the conscious dog completely
CCN(CC)CC(=O)Nc1c(C)cccc1C [lignocaine] |  |  |  |  |  |  | 0.086 ± 0.01 days | 
